The values that follow come from patent US11999971B2, “Stem cell derived islet differentiation” (Vertex Pharmaceuticals Incorporated, priority 2018, dated 2024).

Common to all, as to type: cell-based, human
The subject of test [1] is Pdx1 expressing pancreatic progenitor cells (Stage 4/Stage 5 differentiation). Kind of test: TNKS/Wnt inhibitor in Stage 4 and/or Stage 5 medium; cell composition at end of Stage 5. The source says:
(§1) In certain embodiments described herein, induced pluripotent stem cells are differentiated into SC-Di cells or precursors thereof in vitro. An exemplary differentiation protocol is outlined in FIG. 39. Endocrine progenitor cells produced by Stage 5 can comprise a mixture of cell types. For example, the composition can include NKX6.1+/ISL1+β cells, NKX6.1−/ISL1+α cells, NKX6.1−/ISL1− double negative cells, and enterochromaffin (EC) cells (FIG. 18B and FIG. 18C). For example, FIG. 18B and FIG. 18C show a Stage 5 process intermediate cell composition that comprises about 25% NKX6.1+/ISL1+β cells, about 14.5% NKX6.1−/ISL1+α cells, about 42.4% NKX6.1−/ISL1− double negative cells, and about 18.0% enterochromaffin (EC) cells. For certain applications described herein, such as the production of SC-islets, both NKX6.1−/ISL1− double negative (DN)SC-cells and SC-enterochromaffin (EC) cells are off target cell populations. To improve the Stage 5 cellular composition (e.g., increased percentage of NKX6.1+/ISL1+ SC-β cells and NKX6.1−/ISL1+ SC-α cells; decreased percentage of NKX6.1−/ISL1− SC-DN cells and SC-EC cells), modifications to the Stage 4 and/or Stage 5 medium were evaluated (FIG. 19).
As shown in FIGS. 20A-20B and FIGS. 21A-21B, TNKS/Wnt inhibition during Stage 4 increased the percentage of NKX6.1+/ISL1+β cells (FIG. 21A; FIGS. 20A-20B) and decreased the percentage of NKX6.1−/ISL1− double negative cells (FIG. 21B; FIGS. 20A-20B) at the end of stage 5. Multiple TNKS/Wnt inhibitors that increase the percentage of NKX6.1+/ISL1+β cells at the end of Stage 5 at least two-fold over the control were identified (FIG. 28).
FIGS. 30A-30B show TNKS inhibition increases the percentage of NKX6.1+/ISL1+SC-β cells and decreases the percentage of NKX6.1−/ISL1− SC-DN cells at the end of Stage 5 when TNK inhibitor is used through several times points through Stage 4 or Stage 4 through Stage 5, including S4d3-S4d6, S4d3-S5d2, S4d5-S4d6, and S4d5-S5d2.

Test [2] concerns Pdx1 expressing pancreatic progenitor cells (Stage 4 differentiation). Kind of test: PKC inhibitor in modified stage 4 medium during S4d5-S4d6; cell composition at end of Stage 5. To be noted: for change in percentage of NKX6.1+/ISL1+ β cells at the end of Stage 5: FIG. 33A; for change in percentage of NKX6.1+/ISL1− SC-EC cells at the end of Stage 5: FIG. 33B.
Test [3] has as its system Pdx1 expressing pancreatic progenitor cells (Stage 4/Stage 5 differentiation). Kind of test: PKC activator in Stage 4 and/or Stage 5 medium; FACS analysis of cell composition at end of Stage 5.
Description: as §1
To further improve the Stage 5 cellular composition (e.g., increased percentage of NKX6.1+/ISL1+β cells and NKX6.1−/ISL1+α cells; decreased percentage of NKX6.1−/ISL1− double negative cells and enterochromaffin (EC) cells), further modifications to the Stage 4 and/or Stage 5 medium were evaluated (FIG. 19).
As shown in FIGS. 25A-25B and FIG. 27, PKC activation (0.5 μM phorbol 12,13-dibutyrate) during Stage 4 decreases the percentage of VMAT1+ SC-EC cells at the end of Stage 5 from 24.8% to 4.9%.
FIGS. 35A-35B show PKC activation increases the percentage of NKX6.1−/ISL1+ SC-α cells and decreases the percentage of NKX6.1+/ISL1− SC-EC cells at the end of Stage 5 when a PKC activator is used through several times points through Stage 4 or Stage 4 through Stage 5, including S4d3-S4d6, S4d3-S5d2, S4d5-S4d6, and S4d5-S5d2.

As for `Cc1cc(N2C[C@@H](C)N[C@@H](C)C2)ncc1-c1ccc(-c2nc3c(ccn3C)c(=O)[nH]2)cc1` [AZ6102], the “change in percentage of NKX6.1+/ISL1+ SC-β cells at the end of stage 5 vs control” value is recorded as “increased” in test [1] (0.5 μM during S4d5-S4d6, FACS, FIG. 30A) and “increased” in test [1] (0.5 μM during Stage 4 or Stage 5, FIG. 31A). Also, in test [1] (0.5 μM during Stage 4 or Stage 5, FIG. 31B), the “change in percentage of NKX6.1−/ISL1− SC-DN cells at the end of stage 5 vs control” value is reported as “decreased”.

Regarding `COc1ccc2c(c1)c(C1=C(c3c[nH]c4ccccc34)C(=O)NC1=O)cn2CCCN(C)C` [Go 6983], in test [2], the “change in percentage of NKX6.1+/ISL1+ β cells at the end of Stage 5” value is on record as “decrease” and the “change in percentage of NKX6.1+/ISL1− SC-EC cells at the end of Stage 5” value is “decrease”.

As to `Cn1cc(C2=C(c3cn(CCCSC(=N)N)c4ccccc34)C(=O)NC2=O)c2ccccc21` [Ro 31-8220], in test [2], the “change in percentage of NKX6.1+/ISL1+ β cells at the end of Stage 5” value is “decrease” and the “change in percentage of NKX6.1+/ISL1− SC-EC cells at the end of Stage 5” value was “decrease”.

`CN1CCN(c2nc(C3=C(c4c[nH]c5ccccc45)C(=O)NC3=O)c3ccccc3n2)CC1` [Sotrastaurin]: in test [2], the “change in percentage of NKX6.1+/ISL1+ β cells at the end of Stage 5” value is recorded as “decrease” and the “change in percentage of NKX6.1+/ISL1− SC-EC cells at the end of Stage 5” value was “decrease”.

As for `CCCC(=O)O[C@@H]1[C@@H](C)[C@@]2(O)[C@@H](C=C(CO)C[C@]3(O)C(=O)C(C)=C[C@@H]23)[C@@H]2C(C)(C)[C@]12OC(=O)CCC` [phorbol 12,13-dibutyrate, Phorbol 12,13-dibutyrate], the “percentage of NKX6.1+/ISL1− SC-EC cells at the end of Stage 5” value in test [3] (0.5 μM during S4d5-S5d2, control 32.1%) amounted to 14.7%. For the same compound, in test [3] (0.5 μM during S4d5-S5d2, control printed 1 1.3%), the “percentage of NKX6.1−/ISL1+ SC-α cells at the end of Stage 5” value is recorded as 38.2%. Also, the “percentage of glucagon+ SC-α cells at the end of Stage 5” value in test [3] (0.5 μM during Stage 4, control 5.7%) was 23.7%. In test [3] (0.5 μM during Stage 4, control 10.4%), the “percentage of ARX+ SC-α cells at the end of Stage 5” value stood at 38.4%. Moreover, the “percentage of VMAT1+ SC-EC cells at the end of Stage 5” value in test [3] (0.5 μM during Stage 4, control 24.8%) was found to be 4.9%. Moreover, the “percentage of CDX2+ SC-EC cells at the end of Stage 5” value in test [3] (0.5 μM during Stage 4, control 66.4%) is listed as 21.5%. In addition, the “change in percentage of glucagon positive SC-α cells at the end of stage 5 vs control” value in test [3] (0.5 μM during stage 4, FACS, FIG. 23) is “increased”. In addition, the “change in percentage of ARX positive SC-α cells at the end of stage 5 vs control” value in test [3] (0.5 μM during stage 4, FACS, FIG. 24) is listed as “increased”. Further, in test [3] (0.5 μM during stage 4, FACS, FIG. 25), the “change in percentage of VMAT1 positive SC-EC cells at the end of stage 5 vs control” value was “decreased”. For the same compound, the “change in percentage of CDX2 positive SC-EC cells at the end of stage 5 vs control” value in test [3] (0.5 μM during stage 4, FACS, FIG. 26) was “decreased”.
